# Experimental data reported in patent publication US20220227776A1, “PRODRUGS OF 1'-S[…]-NUCLEOSIDE ANALOGUES FOR ANTIVIRAL TREATMENT” (Copycat Sciences Inc., priority 2020, published 2022).
# Columns and labels:
# [1] = Thermodynamic solubility at pH 7.4; format: physicochemical
# Description: (§1) As summarized in Table 8, these studies indicate that CAT002 is an efficient prodrug of GS-441524 that is well-suited for clinical development as an oral agent.
# [2] = Human plasma stability at 37° C.
# [3] = Human intestinal S9 stability at 37° C.; format: in vitro ADME
# Description: Across all species tested, CAT002 was efficiently metabolized to the core nucleoside GS-441524 when administered orally, indicating efficient first-pass intestinal or hepatic metabolism. Rapid hydrolysis of CAT002 in human intestinal homogenates indicated intestinal metabolism as the primary mechanism of CAT002 hydrolysis.
# [4] = Phosphate buffer stability at 25° C.; format: physicochemical
# Description: as §1
# [5] = test system: Caco-2; experiment: Caco-2 permeability AB/BA; format: in vitro ADME; details: for Caco-2 permeability AB: AB direction; for Caco-2 permeability BA: BA direction; for Caco-2 Efflux: BA/AB
# [6] = Plasma pharmacokinetics of GS-441524 following oral administration of CAT002 in humans; format: in vivo
# Procedure: CAT002 (HCl salt) was administered as excipient-less gelatin capsules to healthy participants (N=2) in the fasted state. Participant 1 (Subject 1) is a healthy person and Participant 2 (Subject 2) is a healthy person. Both Participants 1 and 2 were administered 5.4 mg/kg CAT002 (3 mg/kg-equivalent GS-441524). Whole blood samples were collected at the following timepoints (hours) in K2EDTA collection tubes: 0.5, 1, 3.6, 8, 24, 43. Plasma was isolated by centrifugation and samples were stored at −78° C. before analysis.
# In-life PK of orally administered GS-441524. GS-441524 was administered as an excipient-less gelatin capsule (200 mg) to Participant 1 in the fasted state. Whole blood samples were collected at the following timepoints (hours) in K2EDTA collection tubes: 0.5, 1, 3.6, 8, 24, 43. Plasma was isolated by centrifugation and samples were stored at −78° C. before analysis. Sample preparation. An aliquot of 20 μL unknown sample, calibration standard, quality control and dilution quality control (if have), single blank, and double blank sample was added to the 96-well plate respectively. Each sample (except the double blank) was quenched with 100 μL of IS1 respectively (double blank sample was quenched with 100 μL of MeOH), and then the mixture was vortex-mixed for 10 min at 800 rpm and centrifuged for 15 min at 3220×g, 4° C. An aliquot of 60 μL supernatant was transferred to another clean 96-well plate and centrifuged for 5 min at 3220×g, 4° C., then the supernatant was directly injected for LC-MS/MS analysis.
# LC-MS/MS analysis. Metabolites of interest (GS-441524) were then quantified by LC-MS/MS (SCIEX LC-MS/MS-BZ Triple Quad 6500+, ACQUITY UPLC HSS T3 1.8 μm 2.1×50 mm Column; mobile phase A: 0.1% formic acid in water, mobile phase B: 0.1% formic acid in acetonitrile; flow rate: 0.65 mL/min.). […] The lower limit of quantification was 1.00 ng/mL. Data for both CAT002 and GS-441524 were fitted and analyzed by Phoenix NonWinLin 6.3 using noncompartmental model 200 (extravascular output) (FIG. 3).
# [7] = Human hepatic microsomal stability (+/- mixed cofactors); format: in vitro ADME
# [8] = Plasma pharmacokinetics of GS-441524 following oral administration of CAT002 in Sprague-Dawley rats; format: in vivo
# Procedure: CAT002 (16 mg/kg; 10.8 mg/kg-equivalent of the parent nucleoside, GS-441524) was formulated in saline (1.60 mg/mL) and orally administered to fasted male rats (N=2). Whole blood samples were collected at the following timepoints (hours) in K2EDTA collection tubes: 0.25, 0.50, 1.00, 2.00, 4.00, 8.00, 24.0, 48.0.
# (§2) Sample preparation. Plasma was isolated by protein precipitation in a 96-well plate at 0° C. An aliquot of 20 μL unknown sample, calibration standard, quality control and dilution quality control (if have), single blank, and double blank sample was added to the 96-well plate respectively. Each sample (except the double blank) was quenched with 100 μL of IS1 respectively (double blank sample was quenched with 100 μL of MeOH), and then the mixture was vortex-mixed for 10 min at 800 rpm and centrifuged for 15 min at 3220×g, 4° C. An aliquot of 60 μL supernatant was transferred to another clean 96-well plate and centrifuged for 5 min at 3220×g, 4° C., then the supernatant was directly injected for LC-MS/MS analysis.
# LC-MS/MS analysis. Metabolites of interest (CAT002, GS-441524) were then quantified by LC-MS/MS (SCIEX LC-MS/MS-BZ Triple Quad 6500+, ACQUITY UPLC HSS T3 1.8 μm 2.1×50 mm Column; mobile phase A: 0.1% formic acid in water, mobile phase B: 0.1% formic acid in acetonitrile; flow rate: 0.65 mL/min.). Gradient conditions were as follows: 2% B over 0.2 minutes, 2-25% B from 0.2-1.2 minutes, 25-95% from 1.2-1.4 minutes, 95% from 1.4-2.1 minutes, 95-2% from 2.1-2.11 minutes, 2% from 2.11-2.2 minutes). The lower limit of quantification for both CAT002 and GS-441524 was 2.00 ng/mL. Data for both CAT002 and GS-441524 were fitted and analyzed by Phoenix NonWinLin 6.3 using noncompartmental model 200 (extravascular output). Data on directly administered oral GS-441524 were obtained from the NCATS OpenData Portal and are plotted alongside data generated from CAT002 for comparison (FIG. 1).
# [9] = Plasma pharmacokinetics of GS-441524 following oral administration of CAT002 in cynomolgus macaques; format: in vivo
# Procedure: CAT002 (7.8 mg/kg; 4.9 mg/kg-equivalent of the parent nucleoside, GS-441524) was formulated in saline (1.60 mg/mL) and orally administered to fasted male cynomolgus macaques (N=2). GS-441524 is in turn intracellularly converted to the bioactive ATP analogue, GS-443902. GS-443902 is known to have an antiviral activity and affinity for viral polymerase. See Gordon et al. JBC 2020; 295(20): 6785-6797; Tchesnokov et al. JBC 2020: 295(47):16156-16165; Yin et al. Science 2020: 368(6498): 1499-1504. Whole blood samples were collected at the following timepoints (hours) in K2EDTA collection tubes: 0.25, 0.50, 1.00, 2.00, 4.00, 8.00, 24.0, 48.0.
# as §2
# LC-MS/MS analysis. Metabolites of interest (CAT002, GS-441524) were then quantified by LC-MS/MS (SCIEX LC-MS/MS-BZ Triple Quad 6500+, ACQUITY UPLC HSS T3 1.8 μm 2.1×50 mm Column; mobile phase A: 0.1% formic acid in water, mobile phase B: 0.1% formic acid in acetonitrile; flow rate: 0.65 mL/min.). Gradient conditions were as follows: 2% B over 0.2 minutes, 2-25% B from 0.2-1.2 minutes, 25-95% from 1.2-1.4 minutes, 95% from 1.4-2.1 minutes, 95-2% from 2.1-2.11 minutes, 2% from 2.11-2.2 minutes). The lower limit of quantification for 1.00 ng/mL for CAT002 and 2.00 ng/mL for GS-441524. Data for both CAT002 and GS-441524 were fitted and analyzed by Phoenix NonWinLin 6.3 using noncompartmental model 200 (extravascular output). […]
# [10] = oral CAT002, analyte GS-441524 in plasma
# [11] = oral CAT002 in aqueous solution
compound,measurement,setting,value
"N#C[C@@]1(c2ccc3c(N)ncnn23)O[C@H](CO)[C@@H](O)[C@H]1O [GS-441524, reference compound]",Thermodynamic solubility at pH 7.4,[1],0.04 mg/mL
same,Human plasma stability at 37° C.,[2]; plasma type not specified,Stable
same,Human intestinal S9 stability at 37° C.,[3],Stable
same,"Phosphate buffer stability at 25° C., T1/2",[4]; pH not specified,Stable
same,Caco-2 permeability AB,[5],0.17 cm/sec•10^6
same,Caco-2 permeability BA,[5],2.1 cm/sec•10^6
same,Caco-2 Efflux,[5],12.4
"((2R,3S,4R,5R)-5-(4-aminopyrrolo[2,1-f][1,2,4]triazin-7-yl)-5-cyano-3,4-dihydroxytetrahydrofuran-2-yl)methyl D-valinate [CAT002]","aqueous solubility at neutral pH, fold greater than GS-441524","[1]; neutral pH, relative to GS-441524",87 fold
same,Thermodynamic solubility at pH 7.4,[1],3.4 mg/mL
same,Human plasma stability at 37° C.,[2]; EDTA plasma,EDTA plasma: 195 minutes
same,Human plasma stability at 37° C.,[2]; Heparin plasma,Heparin plasma: >289.1 minutes
same,plasma levels of CAT002 (for determining its half-life),"[6]; oral CAT002, analyte CAT002",either too low or below the limit of quantification
same,half-life of GS-441524 derived from CAT002,[6]; [10],7.3 h
same,"plasma exposure of the core nucleoside with respect to Cmax, fold higher than oral solution of GS-441524 at an equivalent per-molar dose",[6]; oral CAT002 powder-in-capsule formulation,approximately 4 fold
same,"Human hepatic microsomal stability, T1/2",[7],67 minutes (− cofactors)
same,Human intestinal S9 stability at 37° C.,[3],19.5 min
same,"Phosphate buffer stability at 25° C., T1/2",[4]; pH 3.0,pH 3.0: Stable
same,"Phosphate buffer stability at 25° C., T1/2",[4]; pH 7.4,pH 7.4: 30 hours
same,Caco-2 permeability AB,[5],0.55 cm/sec•10^6
same,Caco-2 permeability BA,[5],0.45 cm/sec•10^6
same,Caco-2 Efflux,[5],0.8
same,plasma levels of CAT002 (for determining its half-life),"[8]; oral CAT002, analyte CAT002",either too low or below the limit of quantification
same,half-life of GS-441524 derived from CAT002,[8]; [10],3 h
same,"plasma exposure to GS-441524 with respect to Cmax, fold higher than previously reported for equivalent doses of oral GS-441524 in organic solution",[8]; [11],approximately 6 fold
same,plasma levels of CAT002 (for determining its half-life),"[9]; oral CAT002, analyte CAT002",either too low or below the limit of quantification
same,half-life of GS-441524 derived from CAT002,[9]; [10],8 h
same,"plasma exposure to GS-441524 with respect to Cmax, fold higher than previously reported for equivalent doses of oral GS-441524 in organic solution",[9]; [11],approximately 6 fold
